Tests used:
[1] = test system: human breast cancer cell line (MCF-7); assay: Antiproliferative activity, CCK-8 assay, MCF-7; type: cell-based; settings: CCK-8, 48 h, means of three experiments
Description: Cell culture and cytotoxicity assay […]
against MCF-7 human breast cancer cell line by using the CCK -8 assay with cisplatin, […]
cultured in RPMI-1640 medium containing 10% fetal bovine serum in a humidified 5% CO2 atmosphere at 37 °C. Cells were seeded into 96-well plates at a density of 1×10^5 cells/well and incubated for 24 h. After incubation, the cells were treated with vehicle control, reference drugs, or title compounds, and incubated at 37 °C for 48 h.
Then CCK-8 was added and incubated for another 4 h. The absorbance values of the solution at 450 nm were measured using microplate reader, and each experiment was performed at least in triplicate. Then the results were expressed as the IC50 values. […]

[2] = test system: human lung adenocarcinoma cell line (A549); assay: Antiproliferative activity, CCK-8 assay, A549; type: cell-based; settings: CCK-8, means of three experiments
[3] = test system: normal human embryonic kidney cell line (HEK293); assay: Inhibitory activity against normal cell line HEK293; type: cell-based
purified tubulin protein = assay: In vitro tubulin polymerisation assay; type: biochemical; settings: 37 °C, 20 min incubation
Description: 1.3. In vitro tubulin polymerization assay
The purified tubulin protein was mixed with different concentrations of compound 5b […]
PEM buffer (100 mM PIPES, 1 mM MgCl2, and 1 mM EGTA) with 1 mM GTP and 5% glycerol. Then the mixture was immediately monitored under 340 nm at 37 °C every 1 min for 20 min using the spectrophotometer. The plateau absorbance values were used for calculations. The IC50 value was defined as the concentration of the compound

MCF-7 cancer cells [4] = assay: Cell cycle analysis by flow cytometry; type: cell-based, human; settings: 24 h; for G2 (G2/M) population: control 26.66%; for S population: control 33.42%; for G1 population: control 39.92%
Description: Based on the literature report, most tubulin destabilising agents can disrupt regulated cell cycle distribution and lead to cell cycle arrest at metaphase[23]^,[31]. Therefore, we evaluated the effect of the most promising compound 5b on the cell cycle of MCF-7 cancer cells using the flow cytometry analysis assay. In this study, MCF-7 cancer cells were incubated with different concentrations of 5b (0.3125, 0.625, and 1.25 μM) for 24 h. […]
MCF-7 cells were seeded in 6-well plates (3 × 10^5 cells/well) and incubated in the absence and presence of different concentrations of compound 5b (0.3125, 0.625, and 1.25 μM) for 24 h. Subsequently, the cells were harvested, washed with PBS, and fixed in 70% ice-cold ethanol at 4 °C overnight. After removed the ethanol in the next day, the cells were resuspended in the staining buffer and incubated with RNase and propidium iodide for 30 min. […]

MCF-7 cancer cells [5] = assay: Annexin V-FITC/PI apoptosis assay; type: cell-based, human; settings: 24 h; for total numbers of early and late apoptotic cells: control 4.93%
Description: Considering that tubulin polymerisation inhibitors can induce cellular apoptosis, the Annexin V-FITC/PI assay was performed to detect whether compound 5b was able to induce cancer cell apoptosis. […]
MCF-7 cells were seeded in 6-well plates (3 × 10^5 cells/well) and incubated with different concentrations of compound 5b (0.3125, 0.625, and 1.25 μM) or vehicle for 24 h. Cells were harvested and incubated with 5 μL of Annexin-V/FITC in 300 μL binding buffer for 15 min. Then, PI solution (10 μL) was added to the medium and […]
incubated for 5 min. […]

tubulin = test system: tubulin; set-up: method as in PMID 31724435; settings: naphthalene-chalcone derivative of earlier work ref 23; read-out: Tubulin polymerisation IC50; cited from earlier work

N.N.[Cl][Pt][Cl] [Cisplatin, reference compound]
IC50 [1]: 11.2 ± 0.75 µM | IC50 [2]: 4.92 ± 0.56 µM

CCC(=O)Nc1nc(-c2ccc(OC)c3ccccc23)c(-c2ccc(OC)cc2)s1 [6b]
IC50 ([1]; Homo sapiens, MCF7): 14.8 ± 0.45 µM | IC50 ([2]; Homo sapiens, A549): 40.32 ± 0.32 µM

COc1cc(-c2sc(NC(=O)C(C)C)nc2-c2ccc(OC)c3ccccc23)c(Br)c(OC)c1OC [6k]
IC50 ([1]; Homo sapiens, MCF7): > 50 µM | IC50 ([2]; Homo sapiens, A549): > 50 µM

CCOc1ccc(-c2sc(NC(=O)CC)nc2-c2ccc(OC)c3ccccc23)cc1 [6g]
IC50 ([1]; Homo sapiens, MCF7): 9.61 ± 0.54 µM | IC50 ([2]; Homo sapiens, A549): 18.7 ± 0.89 µM

COc1ccc(-c2sc(N)nc2-c2ccc(OC)c3ccccc23)cc1 [5a]
IC50 ([1]; Homo sapiens, MCF7): 1.8 ± 0.07 µM | IC50 ([2]; Homo sapiens, A549): 2.72 ± 0.18 µM

CCOc1ccc(-c2sc(N)nc2-c2ccc(OC)c3ccccc23)cc1 [5b]
IC50 [3]: 16.4 ± 4.61 µM | IC50 (purified tubulin protein): 3.3 µM | G2 (G2/M) population (MCF-7 cancer cells [4]; 5b 0.3125 μM): 29.03% | S population (MCF-7 cancer cells [4]; 5b 0.3125 μM): 28.11% | G1 population (MCF-7 cancer cells [4]; 5b 0.3125 μM): 42.86% | G2 (G2/M) population (MCF-7 cancer cells [4]; 5b 0.625 μM): 47.32% | S population (MCF-7 cancer cells [4]; 5b 0.625 μM): 36.61% | G1 population (MCF-7 cancer cells [4]; 5b 0.625 μM): 16.06% | G2 (G2/M) population (MCF-7 cancer cells [4]; 5b 1.25 μM): 72.49% | S population (MCF-7 cancer cells [4]; 5b 1.25 μM): 20.22% | G1 population (MCF-7 cancer cells [4]; 5b 1.25 μM): 7.29% | IC50 ([1]; Homo sapiens, MCF7): 0.48 ± 0.03 µM | IC50 ([2]; Homo sapiens, A549): 0.97 ± 0.13 µM | Q1 quadrant (MCF-7 cancer cells [5]; 5b 0.3125 μM): 0.25 | Q2 quadrant (MCF-7 cancer cells [5]; 5b 0.3125 μM): 10.2 | Q3 quadrant (MCF-7 cancer cells [5]; 5b 0.3125 μM): 5.58 | Q4 quadrant (MCF-7 cancer cells [5]; 5b 0.3125 μM): 83.9 | total numbers of early and late apoptotic cells (MCF-7 cancer cells [5]; 5b 0.3125 μM): 15.78% | Q1 quadrant (MCF-7 cancer cells [5]; 5b 0.625 μM): 0.44 | Q2 quadrant (MCF-7 cancer cells [5]; 5b 0.625 μM): 14.8 | Q3 quadrant (MCF-7 cancer cells [5]; 5b 0.625 μM): 10.8 | Q4 quadrant (MCF-7 cancer cells [5]; 5b 0.625 μM): 74.0 | total numbers of early and late apoptotic cells (MCF-7 cancer cells [5]; 5b 0.625 μM): 25.6% | Q1 quadrant (MCF-7 cancer cells [5]; 5b 1.25 μM): 0.55 | Q2 quadrant (MCF-7 cancer cells [5]; 5b 1.25 μM): 15.1 | Q3 quadrant (MCF-7 cancer cells [5]; 5b 1.25 μM): 12.6 | Q4 quadrant (MCF-7 cancer cells [5]; 5b 1.25 μM): 71.8 | total numbers of early and late apoptotic cells (MCF-7 cancer cells [5]; 5b 1.25 μM): 27.7%

CCCC(=O)Nc1nc(-c2ccc(OC)c3ccccc23)c(-c2ccc(OCC)cc2)s1 [6h]
IC50 ([1]; Homo sapiens, MCF7): 7.18 ± 0.78 µM | IC50 ([2]; Homo sapiens, A549): > 50 µM

CCOc1ccc(-c2sc(NC(=O)C(C)C)nc2-c2ccc(OC)c3ccccc23)cc1 [6i]
IC50 ([1]; Homo sapiens, MCF7): 7.69 ± 0.34 µM | IC50 ([2]; Homo sapiens, A549): > 50 µM

CCC(=O)Nc1nc(-c2ccc(OC)c3ccccc23)c(-c2cc(OC)c(OC)c(OC)c2Br)s1 [6j]
IC50 ([1]; Homo sapiens, MCF7): > 50 µM | IC50 ([2]; Homo sapiens, A549): > 50 µM

COc1ccc(-c2sc(NC(=O)C(Cl)(Cl)Cl)nc2-c2ccc(OC)c3ccccc23)cc1 [6d]
IC50 (purified tubulin protein): 6.6 µM | IC50 ([1]; Homo sapiens, MCF7): 1.03 ± 0.09 µM | IC50 ([2]; Homo sapiens, A549): 1.91 ± 0.08 µM

COc1ccc(-c2sc(NC(C)=O)nc2-c2ccc(OC)c3ccccc23)cc1 [6a]
IC50 ([1]; Homo sapiens, MCF7): 2.16 ± 0.27 µM | IC50 ([2]; Homo sapiens, A549): 16.1 ± 0.83 µM

COc1cc2nc(/C=N/c3cccnc3Nc3ccc(Cl)cc3)sc2c(OC)c1OC [IV]
IC50 (tubulin): 8.4 µM

COc1ccc(/C=C\c2cc(OC)c(OC)c(OC)c2)cc1O [CA-4, combretastatin A-4, reference compound]
IC50 ([2]; Homo sapiens, A549): 0.029 ± 0.004 µM

CCCC(=O)Nc1nc(-c2ccc(OC)c3ccccc23)c(-c2ccc(OC)cc2)s1 [6c]
IC50 ([1]; Homo sapiens, MCF7): 14.9 ± 0.34 µM | IC50 ([2]; Homo sapiens, A549): > 50 µM

COc1cc(-c2sc(N)nc2-c2ccc(OC)c3ccccc23)c(Br)c(OC)c1OC [5c]
IC50 ([1]; Homo sapiens, MCF7): 31.1 ± 0.7 µM | IC50 ([2]; Homo sapiens, A549): > 50 µM

COc1ccc(-c2sc(NC(=O)C(C)C)nc2-c2ccc(OC)c3ccccc23)cc1 [6e]
IC50 ([1]; Homo sapiens, MCF7): 12.3 ± 0.54 µM | IC50 ([2]; Homo sapiens, A549): > 50 µM

CCC(=O)N(C(C)=O)c1nc(-c2ccc(OC)c3ccccc23)c(-c2cc(OC)c(OC)c(OC)c2Br)s1 [6n, N-acetyl-N-(5-(2-bromo-3,4,5-trimethoxyphenyl)-4-(4-methoxynaphthalen-1-yl)thiazol-2-yl)propionamide]
IC50 ([1]; Homo sapiens, MCF7): 13.5 ± 0.82 µM | IC50 ([2]; Homo sapiens, A549): 16.3 ± 0.89 µM

CCOc1ccc(-c2sc(NC(C)=O)nc2-c2ccc(OC)c3ccccc23)cc1 [6f]
IC50 ([1]; Homo sapiens, MCF7): 5.49 ± 0.84 µM | IC50 ([2]; Homo sapiens, A549): 7 ± 0.3 µM

CCCC(=O)N(C(=O)CCC)c1nc(-c2ccc(OC)c3ccccc23)c(-c2cc(OC)c(OC)c(OC)c2Br)s1 [6m]
IC50 ([1]; Homo sapiens, MCF7): > 50 µM | IC50 ([2]; Homo sapiens, A549): > 50 µM
